# Patent publication US20050176829A1, “Methods for treating hypothyroidism” (priority 2003, published 2005)
# “Also recorded” adds a separate entry of the source. Read-outs that look alike come from different tables or passages of the source. Marks after values point to notes of the source that are not given here.
# Experiments:
# [1] = clinical; conditions: human, in vivo, metabolic clearance rate (MCR) of T3
# [2] = hypothyroid rats, T3 infusion 7.0 μg/d, 1 week; cited from earlier work
# [3] = Serum T3, free T3 and T4 levels in hypothyroid (thyroidectomized) rats after T3 infusion or bolus injection (radioimmunoassay); format: in vivo, rat
# Source text: FIG. 2. […] Three rats per each group.
# Methods and Materials—Animal Studies. […] Results are expressed as means ±SE.
# [4] = cited from earlier work
# [5] = Heart rate after daily bolus administration of T3 in rats; format: in vivo, rat; conditions: for T3max−Conmax: max HR T3 minus max HR saline control
# [6] = Serum half-life of T3 after bolus injection in thyroidectomized rats; format: in vivo; conditions: Sprague-Dawley, rat, intravenous, 1 ug
# [7] = rats (Goslings et al.); cited from earlier work
# [8] = test system: alpha-myosin heavy chain (alpha-MHC)
# Experimental: FIG. 3A-3B. […] A: Representative agarose gel showing alpha-MHC hnRNA PCR products stained with ethidium bromide and visualized with ultraviolet light. PCR fragment size is 335 basepairs (bp). B: Quantification of hnRNA alpha-MHC 335 bp fragment from left ventricular RNA shown as a percentage of euthyroid (normal) values for three rats.
# FIG. 4. […] Three 200 gram rats per each group.
# FIG. 6. […] Hearts were removed after 3-4 days (24 hours after the last injection), and RNA was extracted from the left ventricles. Transcription was measured by quantitation of α-MHC hnRNA. The content of α-MHC hnRNA measured in these hearts is expressed as the percent of euthyroid (100%).
# Methods and Materials—Animal Studies. Studies were conducted using adult Sprague-Dawley rats weighing between 180 and 225 g. Thyroidectomies were performed by surgical removal of the thyroid gland. […] After animals were sacrificed, the left ventricle of the heart was immediately frozen in liquid nitrogen and then treated for RNA extraction as previously described (Balkman et al. Endocrinology 130: 1002-6, 1992). Reverse transcription polymerase chain reaction (RT-PCR) assay of total left ventricular RNA for alpha-myosin heavy chain (alpha-MHC) heteronuclear (hn) RNA was carried out as previously described (Danzi and Klein, Thyroid 12(6): 467-72, 2002; Danzi et al. Am J Physiol Heart Circ Physiol. 284(6) :H2255-62, 2003). Results are expressed as means ±SE.
# Expression of the cardiac- specific gene alpha-myosin heavy chain (alpha-MHC) is a sensitive indicator of normal cardiac function (Ojamaa et al. CVR&R 23: 20-6, 2002; Danzi et al. Am J Physiol Heart Circ Physiol. 284(6) :H2255-62, 2003; Danzi and Klein, Thyroid 12(6): 467-72, 2002; Ojamma and Klein, Endocrinology 132: 1002-6, 1993).
# [9] = daily bolus T3 0.8 μg/200 gram rat, day 1
# [10] = daily bolus T3 0.8 μg/200 gram rat, day 2
# [11] = daily bolus T3 0.8 μg/200 gram rat, day 3
# [12] = daily bolus T3 0.8 μg/200 gram rat, day 4
# [13] = daily bolus T3 0.8 μg/200 gram rat, day 5
# [14] = day 6, no dosing of T3 on this day
# [15] = day 7, no dosing of T3 on this day
structure (smiles),measurement,setting,value
"N[C@@H](Cc1cc(I)c(Oc2ccc(O)c(I)c2)c(I)c1)C(=O)O [T3, triiodothyronine]",clearance,[1],~0.217 mL/min/kg
same,Heart weight/Body weight,[2],3.64 ± 0.07^a
same,concentration at 3 days,"[3]; Sprague-Dawley, rat, serum, subcutaneous, 0.25 μg/d",0.44 ± 0.03 ng/mL
same,concentration at 3 days,"[3]; Sprague-Dawley, rat, serum, subcutaneous, 0.8 μg/d",0.78 ± 0.06 ng/mL
same,concentration at 1 week,"[3]; Sprague-Dawley, rat, serum, subcutaneous, 1 μg/d",1.32 ± 0.14 ng/mL
same,serum T3 levels versus normal,"[3]; hypothyroid rats, 0.8 μg daily bolus injection, 24 hours after last injection",not effective in restoring serum T3 levels to normal
same,serum T3 levels versus normal,"[3]; hypothyroid rats, 0.8 μg/day by subcutaneous miniosmotic pump infusion, blood sampled at 72",restored to normal; also recorded: restores serum T3 levels to about normal
same,serum T3 levels versus normal,"[3]; hypothyroid rats, T3 infusion 0.25 μg/day and 0.5 μg/day","elevates serum T3 above levels observed in thyroidectomized animals, but does not fully restore serum T3 levels to normal"
same,serum T3 levels versus normal,"[3]; hypothyroid rats, T3 infusion at doses above 0.8 μg/day",elevated serum T3 levels above normal
same,serum T3 levels versus normal,"[3]; thyroidectomized rats, single bolus injection 1 μg T3/day for 7 days",failed to restore serum T3 levels to normal
same,metabolic clearance rate (MCR) of T3,[4]; humans (Chopra and Sabatino),24 L/day/70 kg
same,metabolic clearance rate (MCR) of T3,[4]; hypothyroid humans (Bianchi et al.),11.4 L/day/m^2
same,Δ HR,[5]; AVG of days 1-7,84
same,min HR,"[5]; AVG of days 1-7, P < 0.001 vs control",307^+
same,max HR,"[5]; AVG of days 1-7, P < 0.002 vs control",390^
same,maximum heart rate versus normal,[5]; bolus daily injections of T3 at 0.8 μg,increasing maximum heart rate above normal
same,max HR,[5]; [9],345
same,min HR,[5]; [9],270
same,Δ HR,[5]; [9],75
same,max HR,[5]; [10],370
same,min HR,[5]; [10],315
same,Δ HR,[5]; [10],55
same,max HR,[5]; [11],385**
same,min HR,[5]; [11],320
same,Δ HR,[5]; [11],65
same,max HR,[5]; [12],410**
same,min HR,[5]; [12],320
same,Δ HR,[5]; [12],90
same,max HR,[5]; [13],415**
same,min HR,[5]; [13],300
same,Δ HR,[5]; [13],115
same,max HR,[5]; [14],425*
same,min HR,[5]; [14],300*
same,Δ HR,[5]; [14],125
same,max HR,[5]; [15],380*
same,min HR,[5]; [15],325*
same,Δ HR,[5]; [15],65
same,T3max−Conmax,[5]; AVG,43
same,T3max−Conmax,[5]; day 1,0
same,T3max−Conmax,[5]; day 2,10
same,T3max−Conmax,[5]; day 3,45
same,T3max−Conmax,[5]; day 4,70
same,T3max−Conmax,[5]; day 5,65
same,T3max−Conmax,[5]; day 6 (no T3 dosing),70
same,T3max−Conmax,[5]; day 7 (no T3 dosing),40
same,half-life,[6],7 h
same,metabolic clearance rate (MCR) of T3,[7],2.93 mL/min/kg
same,alpha-MHC expression versus normal,"[8]; hypothyroid rats, T3 infusion 0.25 and 0.5 μg/day",normalization of alpha-MHC expression was observed
same,alpha-myosin HC expression versus normal,"[8]; hypothyroid rats, bolus daily injections 0.25-0.8 μg T3/day",not by bolus daily injections
same,alpha-myosin HC expression versus normal,"[8]; hypothyroid rats, constant infusion 0.25-0.8 μg T3/day, 3-4 days",restored to normal
same,alpha-MHC cardiac transcription,"[8]; thyroidectomized rats, bolus injection 1 μg T3 each day for 2 days",60 % of normal
same,alpha-MHC expression (hnRNA),"[8]; thyroidectomized rats, single bolus injection of 1 μg T3, time course",transient increase in alpha-MHC expression
